IC50 and AC50 data for 23 compounds are collected here from patent US20250332173A1, “COMPOUNDS AND METHODS FOR MODULATING NUCLEIC ACID SPLICING” (REMIX THERAPEUTICS INC., priority 2021, published 2025).

Like-named read-outs stand apart in the source and are kept apart here.

One assay concerns MYB mRNA. The assay can be described thus: RT-qPCR splicing assay, MYB canonical junction (CJ) and alternative junction (AJ) mRNA. It counts as cell-based, human. The conditions noted are these: Homo sapiens; for AC50: increase in MYB alternative junction (AJ) mRNA, read-out: MYB AJ AC50. In a few lines: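 Read-out is one-step RT-qPCR on cell lysates detecting the exon-exon junction of each isoform, normalized to a housekeeping gene (PPIA in A673, GAPDH or GUSB in K562).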
In general terms: In qPCR the cycle at which signal appears reflects the starting amount.

For a further assay, the system named is HTT. The assay can be described thus: HiBiT protein abundance assay, HTT HiBiT K562 cell line. It counts as cell-based, human. The following applies: HiBiT K562 cell line, 24 hours, top dose 10 μM; read-out: Effect on protein abundance, HTT (IC50 category). Summed up:
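Tagged-protein abundance measured by split-NanoBiT luminescence after lysis, following 24 h compound exposure (37° C; 10 μM top, 3-fold, 10 points; DMSO ≤0.25%) of HiBiT knock-in K562 cells. Percent response vs DMSO and unmodified-cell controls; 4-parameter logistic interpolation at 50% gave IC50.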

The mark [1] stands for this setting: Table 5 panel, canonical junction qPCR, compound concentration having 50% response in CJ decrease, read-out: MYB IC50 (decrease in CJ mRNA levels).
The mark [2] stands for this setting: decrease in MYB canonical junction (CJ) mRNA, RT-qPCR, read-out: MYB CJ IC50.

Usually IC50 stands for the concentration needed to halve the response being measured. What is called AC50 is the midpoint of the concentration-response curve, whichever way the signal moves.

`Cc1cc(-c2cc(F)c3c(=O)n(C4CCNC5(CC5)C4)ccc3c2)cc2c1nc(C)n2C` (centres unmarked) [Compound 429]: the IC50 in the assay with MYB mRNA (setting [1]), with MYB mRNA (setting [2]) and in the assay on HTT was over 10 µM throughout. Also, in the assay with MYB mRNA (RT-qPCR), the AC50 was over 10 µM.

Regarding `Cc1nc2c(F)cc(-c3cc(F)c4c(=O)n(C5CCNC6(CC6)C5)ccc4c3)cc2n1C` (centres unmarked) [Compound 430, 8-fluoro-6-(4-fluoro-1,2-dimethyl-1H-benzo[d]imidazol-6-yl)-2-(4-azaspiro[2.5]octan-7-yl)isoquinolin-1(2H)-one], the IC50 in the assay on MYB mRNA (setting [1]), with MYB mRNA (setting [2]) and in the assay with HTT was over 10 µM in each case. Besides, the AC50 in the assay on MYB mRNA (RT-qPCR) was over 10 µM.

Take `Cc1cc(-c2cc(F)c3c(=O)n(C4CCNC5(CC5)C4)ccc3c2)nc2cn(C)nc12` (centres unmarked) [Compound 431]: the 50% inhibitory concentration (IC50) in the assay on MYB mRNA (setting [1]), with MYB mRNA (setting [2]) and in the assay with HTT was under 0.1 µM each time. Further, the AC50 with MYB mRNA (RT-qPCR) is under 0.1 µM.

On to `Cc1cn2nc(-c3cc(O)c4c(=O)n(C5CCNC5)ccc4c3)cc(C)c2n1` (centres unmarked) [Compound 432, 6-{2,8-dimethylimidazo[1,2-b]pyridazin-6-yl}-8-hydroxy-2-(pyrrolidin-3-yl)isoquinolin-1-one], for which the IC50 in the assay with MYB mRNA (setting [1]) is under 0.1 µM; in the assay on MYB mRNA (setting [2]) it was 0.1 to 1 µM; in the assay with HTT, 1 to 10 µM. Moreover, the AC50 in the assay on MYB mRNA (RT-qPCR) was under 0.1 µM.

On to `Cc1cn2cc(-c3cc(O)c4c(=O)n(C5CCNC5)ccc4c3)cc(C#N)c2n1` (centres unmarked) [Compound 433, 6-(8-hydroxy-1-oxo-2-(pyrrolidin-3-yl)-1,2-dihydroisoquinolin-6-yl)-2-methylimidazo[1,2-a]pyridine-8-carbonitrile], for which the values for the IC50 in the assay on MYB mRNA (setting [1]), in the assay on MYB mRNA (setting [2]) and in the assay on HTT were under 0.1 µM, 1 to 10 µM and over 10 µM, respectively. In the assay on MYB mRNA (RT-qPCR), the AC50 lay in the range of 0.1 to 1 µM.

In the case of `Cc1cn2cc(-c3cc(F)c4c(=O)n(C5CCNC5)ccc4c3)cc(C#N)c2n1` (centres unmarked) [Compound 434, 6-[8-fluoro-1-oxo-2-(pyrrolidin-3-yl)isoquinolin-6-yl]-2-methylimidazo[1,2-a]pyridine-8-carbonitrile], the concentration for half-maximal inhibition (IC50) in the assay with MYB mRNA (setting [1]) was 0.1 to 1 µM; with MYB mRNA (setting [2]), 0.1 to 1 µM; in the assay on HTT, over 10 µM. The AC50 with MYB mRNA (RT-qPCR) fell in the range of 0.1 to 1 µM.

As to `Cc1cn2cc(-c3ccc4c(=O)n(C5CCNCC5)cc(C)c4c3)cc(F)c2n1` [Compound 440, 6-{8-fluoro-2-methylimidazo[1,2-a]pyridin-6-yl}-4-methyl-2-(piperidin-4-yl)isoquinolin-1-one], the figures for the IC50 in the assay with MYB mRNA (setting [1]), in the assay with MYB mRNA (setting [2]) and in the assay with HTT were under 0.1 µM, under 0.1 µM and 0.1 to 1 µM, respectively. Further, in the assay with MYB mRNA (RT-qPCR), the AC50 was under 0.1 µM.

As for `Cc1cn2cc(-c3ccc4c(=O)n(C5CCNC5)cc(C)c4c3)cc(F)c2n1` (centres unmarked) [Compound 441, 6-{8-fluoro-2-methylimidazo[1,2-a]pyridin-6-yl}-4-methyl-2-(pyrrolidin-3-yl)isoquinolin-1-one], the IC50 with MYB mRNA (setting [1]), with MYB mRNA (setting [2]) and with HTT was 1 to 10 µM in each case. In the assay with MYB mRNA (RT-qPCR), the AC50 lay within 1 to 10 µM.

Regarding `Cc1cn2cc(-c3ccc4c(=O)n(C5CCNC5)cc(C)c4c3)cc(C#N)c2n1` (centres unmarked) [Compound 442, 2-methyl-6-[4-methyl-1-oxo-2-(pyrrolidin-3-yl)isoquinolin-6-yl]imidazo[1,2-a]pyridine-8-carbonitrile], the IC50 in the assay with MYB mRNA (setting [1]), in the assay on MYB mRNA (setting [2]) and in the assay on HTT was over 10 µM in each case. Besides, the AC50 in the assay with MYB mRNA (RT-qPCR) is over 10 µM.

Consider `Cc1cn2nc(-c3ccc4c(=O)n([C@H]5CCNC6(CC6)C5)ccc4c3)cc(C)c2n1` [Compound 445], for which the half-maximal inhibitory concentration (IC50) in the assay on MYB mRNA (setting [1]), in the assay on MYB mRNA (setting [2]) and in the assay with HTT was under 0.1 µM each time. Also, the AC50 in the assay on MYB mRNA (RT-qPCR) is under 0.1 µM.

As to `Cc1cn2nc(-c3cc(F)c4c(=O)n([C@@H]5CCNC6(CC6)C5)ncc4c3)cc(C)c2n1` [Compound 446], the IC50 in the assay on MYB mRNA (setting [1]), in the assay on MYB mRNA (setting [2]) and with HTT was under 0.1 µM each time. Also, the AC50 with MYB mRNA (RT-qPCR) is under 0.1 µM.

As to `Cc1cn2nc(-c3cc(F)c4c(=O)n([C@H]5CCNC6(CC6)C5)ncc4c3)cc(C)c2n1` [Compound 447], the IC50 in the assay on MYB mRNA (setting [1]), in the assay on MYB mRNA (setting [2]) and in the assay with HTT was under 0.1 µM throughout. Besides, in the assay with MYB mRNA (RT-qPCR), the AC50 is under 0.1 µM.

Turning to `Cc1cn2nc(-c3cc4ccn(C5CCNCC5)c(=O)c4cc3O)cc(C)c2n1` [Compound 448, 6-{2,8-dimethylimidazo[1,2-b]pyridazin-6-yl}-7-hydroxy-2-(piperidin-4-yl)isoquinolin-1-one], the IC50 in the assay on MYB mRNA (setting [1]), in the assay with MYB mRNA (setting [2]) and with HTT was under 0.1 µM each time. Further, in the assay with MYB mRNA (RT-qPCR), the AC50 was under 0.1 µM.

As for `COc1cc2c(=O)n(C3CCNCC3)ccc2cc1-c1cc(C)c2nc(C)cn2n1` [Compound 449, 6-{2,8-dimethylimidazo[1,2-b]pyridazin-6-yl}-7-methoxy-2-(piperidin-4-yl)isoquinolin-1-one], the half-inhibitory concentration (IC50) with MYB mRNA (setting [1]), in the assay on MYB mRNA (setting [2]) and with HTT was over 10 µM each time. The AC50 in the assay with MYB mRNA (RT-qPCR) was over 10 µM.

With `Cc1cn2cc(-c3ccc4c(=O)n([C@@H]5CCNC5)cc(C)c4c3)cc(F)c2n1` [Compound 452, (R)-6-(8-fluoro-2-methylimidazo[1,2-a]pyridin-6-yl)-4-methyl-2-(pyrrolidin-3-yl)isoquinolin-1(2H)-one], the IC50 in the assay on MYB mRNA (setting [1]) is 1 to 10 µM; with MYB mRNA (setting [2]), 1 to 10 µM; in the assay on HTT, over 10 µM. In the assay on MYB mRNA (RT-qPCR), the AC50 was 1 to 10 µM.

Turning to `Cc1cn2c(n1)CCC(c1ccc3c(=O)n(C4CCNCC4)ccc3c1)C2` (centres unmarked) [Compound 453, 6-{2-methyl-5H,6H,7H,8H-imidazo[1,2-a]pyridin-6-yl}-2-(piperidin-4-yl)isoquinolin-1-one], the IC50 in the assay with MYB mRNA (setting [1]), with MYB mRNA (setting [2]) and with HTT was over 10 µM each time. The AC50 in the assay on MYB mRNA (RT-qPCR) was over 10 µM.

For `Cc1cn2cc(-n3ccc4cc(N5C[C@@H](C)N[C@@H](C)C5)ccc4c3=O)nc(C)c2n1` [Compound 454, 2-{2,8-dimethylimidazo[1,2-a]pyrazin-6-yl}-6-[(3R,5S)-3,5-dimethylpiperazin-1-yl]isoquinolin-1-one], the IC50 in the assay on MYB mRNA (setting [1]), in the assay with MYB mRNA (setting [2]) and with HTT was over 10 µM in each case. Also, the AC50 in the assay on MYB mRNA (RT-qPCR) is over 10 µM.

For `Cc1cn2cc(-c3ccc4c(=O)n([C@H]5CCNC5)cc(C)c4c3)cc(C#N)c2n1` [Compound 456, (S)-2-methyl-6-(4-methyl-1-oxo-2-(pyrrolidin-3-yl)-1,2-dihydroisoquinolin-6-yl)imidazo[1,2-a]pyridine-8-carbonitrile], the IC50 in the assay with MYB mRNA (setting [1]), in the assay with MYB mRNA (setting [2]) and in the assay on HTT was over 10 µM throughout. Moreover, in the assay with MYB mRNA (RT-qPCR), the AC50 is over 10 µM.

For the compound `Cc1cn2cc(-c3cc(F)c4c(=O)n(C5CCNCC5)cc(C)c4c3)cc(F)c2n1` [Compound 461, 8-fluoro-6-{8-fluoro-2-methylimidazo[1,2-a]pyridin-6-yl}-4-methyl-2-(piperidin-4-yl)isoquinolin-1-one], the IC50 in the assay on MYB mRNA (setting [1]), with MYB mRNA (setting [2]) and with HTT was under 0.1 µM each time. Further, the AC50 in the assay with MYB mRNA (RT-qPCR) is under 0.1 µM.

With `Cc1cn2nc(-c3cc(O)c4c(=O)n(C5CCNC5)cc(C)c4c3)cc(C)c2n1` (centres unmarked) [Compound 462], the IC50 with MYB mRNA (setting [1]), in the assay on MYB mRNA (setting [2]) and in the assay with HTT was 1 to 10 µM in each case. Besides, the AC50 in the assay on MYB mRNA (RT-qPCR) was in the range of 1 to 10 µM.

In the case of `Cn1cc2c(n1)CCN(c1ccc3c(=O)n(C4CCNCC4)ccc3c1)C2` [Compound 509, 6-{2-methyl-4H,6H,7H-pyrazolo[4,3-c]pyridin-5-yl}-2-(piperidin-4-yl)isoquinolin-1-one], the IC50 with MYB mRNA (setting [1]), in the assay with MYB mRNA (setting [2]) and in the assay with HTT was over 10 µM each time. Besides, the AC50 in the assay with MYB mRNA (RT-qPCR) was over 10 µM.

As for `Cc1cn2cc(-c3ccc4c(=O)n(C5CCNC6(CC6)C5)ncc4c3)cc(Cl)c2n1` (centres unmarked) [Compound 510], the half-inhibitory concentration (IC50) lay within 1 to 10 µM in the assay on MYB mRNA (setting [1]), 1 to 10 µM in the assay on MYB mRNA (setting [2]) and 0.1 to 1 µM in the assay on HTT. In addition, the AC50 with MYB mRNA (RT-qPCR) was in the range of 1 to 10 µM.

Consider `Cn1cc2nc(-c3ccc4c(=O)n(C5CCNC6(CC6)C5)ncc4c3)ccc2n1` (centres unmarked) [Compound 511], for which the IC50 with MYB mRNA (setting [1]), in the assay with MYB mRNA (setting [2]) and in the assay on HTT was 0.1 to 1 µM throughout. Besides, the AC50 with MYB mRNA (RT-qPCR) is 0.1 to 1 µM.
